Test results published in DBAASP.
In brackets after ≈: the same amount, converted by molar mass.

Legend:
Test in all cases: ≥ marks a high value that may be exact or a test limit, other limits are often not marked, values filed in µg/mL are converted to µM
Bacillus cereus = test system: Bacillus cereus
Pseudomonas aeruginosa = test system: Pseudomonas aeruginosa
[1] = test system: Escherichia coli ATCC 25922
Shigella dysenteriae = test system: Shigella dysenteriae
[2] = test system: Staphylococcus aureus ATCC 2592
[3] = test system: Candida albicans ATCC 2002
Bacillus subtilis = test system: Bacillus subtilis
Micrococcus luteus = test system: Micrococcus luteus
Klebsiella pneumoniae = test system: Klebsiella pneumoniae
Escherichia coli = test system: Escherichia coli
Proteus mirabilis = test system: Proteus mirabilis
Staphylococcus aureus = test system: Staphylococcus aureus
[4] = test system: Staphylococcus epidermidis
Salmonella typhimurium = test system: Salmonella typhimurium
Escherichia coli JW0013 = test system: Escherichia coli JW0013

MIC (Pseudomonas aeruginosa) [µM]	MIC [1] [µM]	MIC (Shigella dysenteriae) [µM]	MIC [2] [µM]	MIC [3] [µM]	MIC (Escherichia coli JW0013) [µM]	other results	SMILES
10.6 (≈ 25 µg/mL)	10.6 (≈ 25 µg/mL)	5.32 (≈ 12.5 µg/mL)	5.32 (≈ 12.5 µg/mL)	≥ 42.6		MIC (Bacillus cereus): 21.3 µM (≈ 49.9 µg/mL)	CSCC[C@H](NC(=O)[C@H](CO)NC(=O)[C@H](Cc1ccc(O)cc1)NC(=O)[C@H](C)NC(=O)[C@@H](N)CCCCN)C(=O)N1CCC[C@H]1C(=O)N[C@@H](CCCN=C(N)N)C(=O)N[C@H]1CSSC[C@@H](C(=O)N[C@@H](Cc2c[nH]c3ccccc23)C(=O)N[C@@H](CC(C)C)C(N)=O)NC(=O)[C@H](CC(C)C)NC(=O)[C@H](C(C)C)NC(=O)[C@H](C)NC(=O)[C@H](CCCN=C(N)N)NC(=O)[C@H](Cc2ccccc2)NC(=O)[C@H](CC(C)C)NC(=O)[C@H](Cc2ccc(O)cc2)NC(=O)[C@H](CCCCN)NC1=O [KAYSMPRCKYLFRAVLCWL]
> 153		≥ 153				MIC (Bacillus subtilis): 9.54 µM (≈ 12.5 µg/mL); MIC (Micrococcus luteus): ≥ 38.2 µM; MIC (Klebsiella pneumoniae): 76.4 µM (≈ 100 µg/mL); MIC (Escherichia coli): 76.4 µM (≈ 100 µg/mL); MIC (Proteus mirabilis): ≥ 153 µM; MIC (Staphylococcus aureus): 9.54 µM (≈ 12.5 µg/mL); MIC [4]: 19.1 µM (≈ 25 µg/mL); MIC (Salmonella typhimurium): ≥ 153 µM	CC(C)C[C@H](NC(=O)[C@H](C)NC(=O)[C@H](Cc1c[nH]c2ccccc12)NC(=O)[C@H](CC(C)C)NC(=O)[C@@H](N)Cc1ccccc1)C(=O)N[C@@H](Cc1ccccc1)C(=O)N[C@@H](CCCCN)C(=O)N[C@H](C(=O)N[C@@H](C)C(=O)N[C@@H](CO)C(=O)N[C@@H](CCCCN)C(=O)O)C(C)C [FLWALFKVASK]
	2.44 (≈ 6.5 µg/mL)	0.825 (≈ 2.2 µg/mL)	2.06 (≈ 5.5 µg/mL)	2.81 (≈ 7.49 µg/mL)			CC[C@H](C)[C@@H]1NC(=O)[C@H](CCCCN)NC(=O)[C@@H](NC(=O)[C@H](Cc2ccccc2)NC(=O)[C@H](CC(C)C)NC(=O)[C@H](CCCCN)NC(=O)[C@@H]2CCCN2C(=O)[C@H](CC(C)C)NC(=O)[C@H](Cc2ccccc2)NC(=O)[C@H](CC(N)=O)NC(=O)[C@H](C)NC(=O)[C@H](C)NC(=O)[C@H](CC(C)C)NC(=O)[C@H](CO)NC(=O)[C@@H](NC(=O)[C@H](C)NC(=O)[C@H](CC(C)C)NC(=O)[C@@H]2CCCN2C(=O)[C@H](CC(C)C)NC(=O)[C@@H](N)Cc2ccccc2)C(C)C)CSSC[C@@H](C(=O)O)NC(=O)[C@H](CCCCN)NC(=O)[C@H](CCCCN)NC(=O)[C@H]([C@@H](C)O)NC1=O [FLPLAVSLAANFLPKLFCKITKKC]
					1.34 (≈ 3.3 µg/mL)		CC[C@H](C)[C@H](NC(=O)[C@H](CCCN=C(N)N)NC(=O)[C@H](CCCN=C(N)N)NC(=O)[C@@H]1CCCN1C(=O)[C@@H]1CCCN1C(=O)[C@H](CCCN=C(N)N)NC(=O)[C@@H]1CCCN1C(=O)[C@H](CCCN=C(N)N)NC(=O)[C@@H]1CCCN1C(=O)[C@H](CCCN=C(N)N)NC(=O)[C@H](CCCN=C(N)N)NC(=O)[C@@H]1CCCN1C(=O)[C@H](CCCCN)NC(=O)[C@H](CCCCN)NC(=O)[C@H](CC(=O)O)NC(=O)[C@@H](N)C(C)C)C(=O)N[C@@H](Cc1ccc(O)cc1)C(=O)N[C@@H](CC(N)=O)C(=O)N[C@@H](CCCN=C(N)N)C(N)=O [VDKKPRRPRPRPPRRIYNR]
					1.99 (≈ 4.8 µg/mL)		CC[C@H](C)[C@H](NC(=O)[C@H](CCCN=C(N)N)NC(=O)[C@H](CCCN=C(N)N)NC(=O)[C@@H]1CCCN1C(=O)[C@@H]1CCCN1C(=O)[C@H](CCCN=C(N)N)NC(=O)[C@@H]1CCCN1C(=O)[C@H](CCCN=C(N)N)NC(=O)[C@@H]1CCCN1C(=O)[C@H](CC(C)C)NC(=O)[C@H](Cc1c[nH]c2ccccc12)NC(=O)[C@@H]1CCCN1C(=O)[C@@H]1CCCN1C(=O)[C@H](CCCCN)NC(=O)[C@H](CC(=O)O)NC(=O)[C@@H](N)C(C)C)C(=O)N[C@@H](Cc1ccc(O)cc1)C(=O)N[C@@H](CC(N)=O)C(=O)N[C@@H](CCCN=C(N)N)C(N)=O [VDKPPWLPRPRPPRRIYNR]
